Test results reported in patent US20130130238A1, “Fluorimetric Process for Evaluating the Influence of A Condition on A Biological Sample and Applications Thereof” (NOVALEADS, priority 2008, published 2013).

What was measured:
Format in all cases: cell-based
HeLa cells [1] = assay: Kinetic profile of SYTO13 or SYTO15 fluorescence under continuous illumination, HeLa cells treated with apoptogenic agent; settings: 1 μM, 7 hours
Protocol: HeLa cells were treated for 7 hours with (∘, Δ) or without ([…], ▴) 1 μM staurosporine. The cells were then labelled with a 10 μM solution of SYTO13 (Δ, ▴) or SYTO15 (∘, […]) then subjected to continuous illumination for 300 seconds. The intensity of fluorescence is then measured every 5 seconds. Each intensity value is then expressed as a percentage of the first fluorescence value measured. (IF: intensity of fluorescence; T: illumination time).
HeLa cells (Sigma-Aldrich) are plated into a 96-well format transparent-bottomed black microplate at 20000 cells per well the day before the experiment. On the day of the test the cells are or are not treated with 1 μM of staurosporine for 7 hours. The cells are then labelled for 20 minutes with 50 μl of a 10 μM solution of SYTO13 (Invitrogen) or SYTO15 (Invitrogen) prepared in buffer A.
The labelled cells are placed under a fluorescence reader of the Varioskan type (Thermo Electron Corporation) equipped with a Xenon Flash lamp. The samples labelled with SYTO13 and SYTO15 are then subjected for 300 seconds to continuous illumination at 488 nm and 516 nm respectively. The fluorescence intensities emitted by these biosensors are then measured every 5 seconds.

HeLa cells [2] = assay: Kinetic profile of SYTO62 fluorescence under continuous illumination, HeLa cells treated with apoptotic agent; settings: 7 hours, 10 μM SYTO62, illumination 40 seconds at 488 nm
Protocol: HeLa cells were treated for 7 hours with (Δ, □, ⋄) or without (∘) 0.1 μM (Δ), 0.5 μM (□) and 1 μM (⋄) staurosporine. The cells were then labelled with a 10 μM solution of SYTO62 then subjected to continuous illumination for 40 seconds. The intensity of fluorescence is then measured every second. Each intensity value is then expressed as a percentage of the first fluorescence value measured. (IF: intensity of fluorescence; T: illumination time). HeLa cells (Sigma-Aldrich) are plated into a 96-well format transparent-bottomed black microplate at 20000 cells per well the day before the experiment. On the day of the test the cells are or are not treated with 0.1, 0.5 and 1 μM of staurosporine (Sigma-Aldrich) for 7 hours. The cells are then labelled for 20 minutes with 50 μl of a 10 μM solution of SYTO62 (Invitrogen) prepared in a buffer containing 25 mM Hepes, 140 mM NaCl, 1 mM EDTA and 0.1% bovine serum albumin (BSA), pH 7.4 (buffer A). The samples are placed under a fluorescence microscope (Leica DMIRB) at ×100 magnification then subjected to continuous illumination at 488 nm with a mercury lamp (HBO […]/2) for 40 seconds. The intensity of fluorescence emitted by the biosensor is then measured every second.

HeLa cells [3] = assay: Kinetic profile of SYTO62 fluorescence under continuous illumination, HeLa cells treated with anticancer agent; settings: 0.1 μM and 1 μM, 24 hours, 10 μM SYTO62, illumination 50 seconds at 488 nm
Protocol: The intensity of fluorescence is then measured every second. Each intensity value is then expressed as a percentage of the first fluorescence value measured. (IF: intensity of fluorescence; T: illumination time). HeLa cells (Sigma-Aldrich) are plated into a 96-well format transparent-bottomed black microplate at 20000 cells per well the day before the experiment. […] The intensity of fluorescence emitted by the biosensor is then measured every second.

HepG2 cells = assay: Kinetic profile of SYTO13 fluorescence under continuous illumination, HepG2 cells treated with okadaic acid; settings: 0.01, 0.031, 0.1, 0.31 and 1 μM, 24 hours, 2 μM final SYTO13, illumination 20 seconds at 488 nm
Protocol: The cells were then labelled with a solution of SYTO13 of 2 μM final concentration then subjected to continuous illumination for 20 seconds. The intensity of fluorescence is then measured every 0.4 seconds. Each intensity value is then expressed as a percentage of the first fluorescence value measured. (IF: intensity of fluorescence; T: illumination time).
HepG2 cells (ATCC) are plated into a 96-well format transparent-bottomed black microplate at 20000 cells per well two days before the experiment. The day before the test the cells are or are not treated with 75 μl of 0.01, 0.031, 0.1, 0.31 and 1 μM solutions of okadaic acid (Sigma-Aldrich). The cells are incubated for 24 hours.
On the day of the test, the cells are labelled for 30 minutes at 37° C. with 25 μl of an 8 μM solution of SYTO13 (Invitrogen) (i.e. 2 μM final) prepared in MEM culture medium (Invitrogen).
The samples are placed under a fluorescence microscope at ×100 magnification then subjected to continuous illumination at 488 nm with a mercury lamp for 20 seconds. The intensity of fluorescence emitted by the biosensor is then measured every 0.4 seconds.

For `CN[C@@H]1C[C@H]2O[C@@](C)([C@@H]1OC)n1c3ccccc3c3c4c(c5c6ccccc6n2c5c31)C(=O)NC4` [staurosporine], the “increase in the fluorescence measured under continuous illumination” value (HeLa cells [1]; 10 μM SYTO13, illumination 300 seconds at 488 nm) was “does not induce an increase in the fluorescence measured”, the “increase in the fluorescence measured under continuous illumination” value (HeLa cells [1]; 10 μM SYTO15, illumination 300 seconds at 516 nm) was “does not induce an increase in the fluorescence measured” and the “increase in the intensity of fluorescence measured under continuous illumination” value (“increase in the intensity” below) (HeLa cells [2]; 0.1 μM) was “a weaker increase in fluorescence than in the untreated condition”. The “increase in the intensity” value (HeLa cells [2]; 0.5 μM) was “an increase in fluorescence is no longer measured” and the “increase in the intensity” value (HeLa cells [2]; 1 μM) was “an increase in fluorescence is no longer measured”.
With `CC(=O)O[C@H]1C(=O)[C@@]2(C)[C@H]([C@H](OC(=O)c3ccccc3)[C@]3(O)C[C@H](OC(=O)[C@H](O)[C@@H](NC(=O)c4ccccc4)c4ccccc4)C(C)=C1C3(C)C)[C@]1(OC(C)=O)CO[C@@H]1C[C@@H]2O` [Taxol, Paclitaxel] the “variation in fluorescence measured under illumination” value (HeLa cells [3]) was “dose-dependent decrease in the variation in fluorescence”.
With `C=C1[C@@H](O)[C@@H]2O[C@]3(CC[C@H](/C=C/[C@@H](C)[C@@H]4CC(C)=C[C@@]5(O[C@H](C[C@@](C)(O)C(=O)O)CC[C@H]5O)O4)O3)CC[C@H]2O[C@@H]1[C@@H](O)C[C@H](C)[C@H]1O[C@@]2(CCCCO2)CC[C@H]1C` [okadaic acid] the “variation in fluorescence measured under illumination” value (HepG2 cells) was “dose-dependent decrease in the variation in fluorescence”.
